According to US10383977B2, “Cardiovascular prostheses” (CorMatrix Cardiovascular, Inc., priority 2011, dated 2019):

Tested on: CCR2
Assay: In vitro assay, TNF-α stimulated CCR2 expression in THP-1 cells (quantitative PCR)
Type: cell-based, human
Conditions: THP-1 cells treated with TNF-α
Excerpt: In the following study, the activity of cerivastatin and other statins, including simvastatin, lovastatin and atorvastatin, was similarly assessed using the human monocytic cell line THP-1. The THP-1 cells were similarly seeded by preparing a solution of THP-1 cells at 6×10^5 cells/ml and loading the solution of THP-1 cells onto a cell culture plate. The in vitro assay included six (6) treatment groups, including one (1) control group consisting of untreated THP-1 cells, one (1) positive control group consisting of THP-1 cells treated with tumor necrosis factor alpha (TNF-α) alone, four (4) treatment groups consisting of THP-1 cells treated with TNF-α and cerivastatin, TNF-α and simvastatin, TNF-α and lovastatin and TNF-α and atorvastatin. In this study, the THP-1 cells were treated with TNF-α to stimulate the production of CCR2. Each of the six (6) THP-1 cell samples were harvested and collected in a sealable vial and centrifuged to separate the liquid media from the THP-1 cells. The THP-1 cells were then collected and used for RNA extraction and quantitative PCR.

For `CC(C)c1c(C(=O)Nc2ccccc2)c(-c2ccccc2)c(-c2ccc(F)cc2)n1CC[C@@H](O)C[C@@H](O)CC(=O)O` [atorvastatin], the “expression of CCR2” value was “did not, however, restrict CCR2 expression at levels comparable to cerivastatin”.

For `CC[C@H](C)C(=O)O[C@H]1C[C@@H](C)C=C2C=C[C@H](C)[C@H](CC[C@@H]3C[C@@H](O)CC(=O)O3)[C@H]21` [lovastatin], the “expression of CCR2” value was “did not, however, restrict CCR2 expression at levels comparable to cerivastatin”.
